Read-outs that look alike come from different tables or passages of the source.
Key:
[1] = system: LDL, HDL; settings: cited from earlier work
[2] = system: prostaglandin D2 (PGD2); assay: NHP crossover study: serum PGD2; assay type: in vivo, cynomolgus monkeys; settings: over 24 hours post dosing, equimolar doses
Experimental: For TxB2, an additional 0.4 mL whole blood aliquots were placed in siliconised glass tubes to induce a clotting response and the supernatants were analysed for TxB2 using a Luminex ELISA immunoassay. PGD2 was analysed from serum directly using a Luminex ELISA immunoassay.

[3] = system: serum glucose; assay: NHP crossover study: serum glucose
Experimental: (§1) The primary study endpoint is change in plasma LDL cholesterol and Apolipoprotein B at 48 hours. An aliquot of 300 μL of serum transferred to a cryovial and was immediately placed in a freezer set to maintain −70° C. until analyzed for clinical chemistry (LDL cholesterol, Apolipoprotein B, TGs, glucose) using a standard Roche Analyser.

[4] = crystalline nicotinic acid (>1 g), cited from earlier work
[5] = system: LDL cholesterol, Apolipoprotein B, TGs; assay: NHP crossover study: clinical chemistry (LDL-C, ApoB, TG)
Experimental: as §1

[6] = secondary prevention; cited from earlier work
[7] = target: PGD2 receptor-1 (DP1) (Homo sapiens, UniProt Q13258); settings: nicotinic acid without vs with added laropiprant (Kush 2009); cited from earlier work
[8] = cited from earlier work
[9] = cited from earlier work; remark: listed apart in the source
[10] = cited from earlier work; remark: listed apart in the source
[11] = 8 and 14 months, on statin therapy; cited from earlier work
[12] = system: LDL cholesterol, HDL cholesterol, TG; settings: adult dyslipidemias; cited from earlier work
[13] = system: blood glucose; settings: cited from earlier work; for patients with diabetes requiring a change in hypoglycemic therapy: in vivo
[14] = baseline to 48 hours, 28 mg/kg niacin equivalents daily oral gavage, n=6

PGD2 receptor-1 (DP1), sequence (Q13258 whole entry): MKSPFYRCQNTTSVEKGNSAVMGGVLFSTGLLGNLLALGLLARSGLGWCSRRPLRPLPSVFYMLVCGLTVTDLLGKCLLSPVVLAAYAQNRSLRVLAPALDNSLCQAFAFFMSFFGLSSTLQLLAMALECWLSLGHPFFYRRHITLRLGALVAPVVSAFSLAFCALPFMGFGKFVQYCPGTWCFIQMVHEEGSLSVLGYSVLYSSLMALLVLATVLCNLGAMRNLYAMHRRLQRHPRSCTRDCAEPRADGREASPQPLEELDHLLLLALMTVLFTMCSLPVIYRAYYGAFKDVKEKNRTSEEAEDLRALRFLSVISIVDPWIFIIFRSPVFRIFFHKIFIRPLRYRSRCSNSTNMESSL

## O=C(O)c1cccnc1 [nicotinic acid]
[1]; 1 g/day added to stable statin
  additional lowering of LDL levels: 8%
  additional raise of HDL levels: 24%
[1]; 2 g/day added to stable statin
  additional lowering of LDL: 20%
  additional raise of HDL cholesterol levels: 27%
[2]
  PGD2 AUC: 128.3 ± 38.2 ng·h/mL
[3]; 1 hour post dose
  serum glucose change from baseline: significant decrease
[3]; following animal feeding between 1-2 hours post dose
  serum glucose after feeding: rebound to baseline levels
[4]; oral
  half life: about 60 minutes
  time to peak plasma concentrations: 30 to 60 min
[4]
  oral absorption: almost completely absorbed
[5]; 48 hours
  TG levels at 48 hours (follow up): 64 ± 31 mg/dL
[5]; baseline
  TG levels at baseline: 50 ± 10 mg/dL
[5]; baseline to 48 hours
  increase in TG levels (non-significant): 23.3%
[5]; [14]
  reduction from baseline in LDL cholesterol: 33%
  reduction from baseline in apolipoprotein B: 24%
[6]
  coronary artery revascularization, non-fatal MI, stroke and TIA: significant reduction
[7]
  rate of moderate/severe flushing: 50%
[8]; 1,000 mg once daily added to simvastatin
  HDL increase: 21%
[8]; after 12 months
  carotid intima-media thickness (CIMT): unchanged
[9]; Jacobson 2010
  patients discontinuing treatment because of flushing: 5-20%
[9]; review of clinical trials
  users experiencing mild or moderate flushing: > 60%
[10]; five year follow up, men with history of MI
  reduction of incidence of non-fatal re-infarction / risk of myocardial infarction: 27%
[10]; mean follow-up of 15 years
  decrease in all-cause (long-term) mortality: 11%
[11]
  CIMT: significant reduction
[12]
  HDL cholesterol: +15 to +35%
  LDL cholesterol: −5 to −25%
  TG: −20 to −50%
[13]; doses <2.5 g
  increase in fingerstick glucose levels: 4% to 5
[13]
  patients with diabetes requiring a change in hypoglycemic therapy: 10-35%
[13]; listed as Nicotinic acid
  patients with diabetes requiring a change in hypoglycemic therapy: 10% to 35

Reference: patent publication US8834858B2, “Treatment for dyslipidemia” (Solvotrin Therapeutics Ltd., priority 2011, dated 2014)
